Entries after “also recorded” stand apart in the source; their conditions may differ.
B1: recombinant GDF6 protein: recombinant GDF6 protein added to culture media; soluble, extracellular BMP ligand (BMP13) (protein, UniProt Q6KF10 336-455, looked up)
Growth/differentiation factor …: TAFASRHGKRHGKKSRLRCSKKPLHVNFKELGWDDWIIAPLEYEAYHCEGVCDFPLRSHLEPTNHAIIQTLMNSMDPGSTPPSCCVPTKLTPISILYIDAGNNVVYKQYEDMVVESCGCR

Legend:
[1] = tested on: BMP signaling (phospho-SMAD1); assay: Western blot of BMP signaling (phospho-SMAD1) in DMH1-treated A375 cells; assay type: cell-based, human; details: 10 μM DMH1, Western blot
Description: Protein extracts were prepared as previously described (S. D. Epstein LB, Hunte-McDonough B, harris C A, Cytokines: A pratical approach (Balkwill F R., ed). 81-93 (1991)). Extracts were separated on 12% SDS-PAGE gels. Blots were probed with primary antibodies (GDF6 (Sigma PRS4691; 1:1000), phospho-SMAD1/5/8 (Cell Signaling 13820; 1:1000), SMAD1 (Cell Signaling 9743; 1:500), Total SMAD1/5/8 (Santa Cruz sc-6031-R; 1:1000), FLAG (Sigma F3165, 1:2000), GAPDH (Abcam 8245; 1:2000)) overnight at 4° C., washed five times in TBS plus 0.1% Tween (TBST) and then incubated with the appropriate HRP-conjugated secondary antibody (Jackson Labs) for 1 hour at room temperature. Membranes were washed five times in TBST and visualized on autoradiography film after incubating with ECL reagent (Supersignal West Pico or Supersignal West Femto; Thermo Scientific).

[2] = tested on: A375 melanoma cells; assay: growth curves by direct cell counting, A375; assay type: cell-based, human; details: 10 μM DMH1 vs control media
Description: (§1) For growth curves 50,000 live cells were seeded per well in a 6-well tissue culture plate on day 0. The numbers of live cells were calculated every day using an automated cell counter (Nexcelom Bioscience Cellometer Auto T4) following standard procedures. All assays were performed with technical replicates. For clonogenic assays, 3,000 live cells were seeded in a 10 cm tissue culture plate. After 3 weeks, colonies were fixed and stained using bromophenol blue in acetone. ImageJ was used to quantify the number of colonies. In assays with DMH1 treatment, control or DMH1-containing media was replaced every other day. For soft agar assays a 0.5% bottom layer (1:1 with 1% agar and 2×DMEM with 20% FBS) and a 0.3% top layer (1:1 with 0.6% agar and 2×DMEM with 20% FBS) were used. 3,000 live cells per well of a 6-well tissue culture plate were added in the top layer. Media was added initially then replaced every 3 days. After 3 weeks, colonies were stained with nitroblue tetrazolium chloride overnight at 37° C. Once stained, individual wells were photographed, and ImageJ was used to count the number of colonies. All these assays were done in triplicate, and experiments were repeated at least twice. A representative image of each has been shown.

[3] = tested on: SKMEL28 melanoma cells; assay: growth curves by direct cell counting, SKMEL28; assay type: cell-based, human; details: SKMEL28 cells treated with DMH1 vs control
Description: as §1

[4] = tested on: A375 melanoma cells; assay: clonogenic growth / colony formation assay; assay type: cell-based, human; details: A375-EMPTY vs A375-SMAD1DVD cells treated with DMH1
Description: as §1

[5] = tested on: A375 melanoma cells; assay: A375 mouse xenografts treated with DMH1, tumor volume; assay type: in vivo; details: 25 mg/kg DMH1 intraperitoneally every other day vs vehicle
Source text: All animal protocols were approved by the UMMS Institution Animal Care and Use Committee (A-2016, A-2171). Mice were randomly allocated to individual experimental groups. No blinding was done as animal groups were identified by tagging and cage labeling. Animals were excluded, according to pre-established criteria, if the tumor volume reached>1,000 mm^3; if tumor size or location affected the mobility or general health of animal, the animal was euthanized and excluded from the experiment or the complete experiment was terminated. A375 cells stably expressing an EGFP or GDF6 or SMAD1 shRNA and/or empty vector or GDF6-expressing vector or SMAD1DVD-overexpressing vector were subcutaneously injected into the flanks of 6-8-week-old BALB/c nu/nu female mice (Taconic Farms) to produce orthotopic primary tumor. Primary tumor growth was monitored every 3 days with calipers, and the tumor volume was calculated as described previously (C. Gazin, N. Wajapeyee, S. Gobeil, C. M. Virbasius, M. R. Green, An elaborate pathway required for Ras-mediated epigenetic silencing. Nature 449, 1073-1077 (2007)). For GDF6 knockdown, SMAD1 knockdown and epistasis experiments, […] live cells were injected. For GDF6 overexpression experiments, 1×10^6 live cells were injected. […] The growth of the tumor was monitored as described above. […]

[6] = tested on: MeWo melanoma cells; assay: proliferation of GDF6-knockdown cells supplemented with recombinant GDF6 protein; assay type: cell-based, human; details: MeWo cells treated with shRNAs targeting GDF6, recombinant GDF6 protein added to culture media

| Molecule | level of phospho-SMAD1 relative to total SMAD protein [1] | cell growth (growth curves) [2] | cell growth (growth curves) [3] | growth defects caused by DMH1 in SMAD1DVD-expressing cells (colony formation) [4] | tumor volume / tumor growth [5] | proliferation of GDF6-knockdown cells [6] | proliferation of GDF6-knockdown cells ([6]; listed as recombinant GDF6) |
| --- | --- | --- | --- | --- | --- | --- | --- |
| CC(C)Oc1ccc(-c2cnc3c(-c4ccnc5ccccc45)cnn3c2)cc1 [DMH1] | reduced level of phospho-SMAD1 | grew more slowly; also recorded: inhibits A375 melanoma cell growth | grew more slowly | reversed by SMAD1DVD | smaller tumors arose and grew more slowly; also recorded: decreased tumorigenicity; also recorded: abrogates melanoma growth |  |  |
| B1 |  |  |  |  |  | restored | able to sustain their proliferation |
